Assay results: PubChem BioAssay (NCI)
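96-well plates; 48 h exposure; 5 concentrations. Endpoints by linear interpolation between flanking doses. Not reached: highest tested concentration assigned. GI50 marks 50% less growth. TGI is the concentration that stops growth completely.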

Assays:
Assay in all cases: NCI tumour cell line growth inhibition, 48 h
[1] = test system: HOP-62 NSCLC
[2] = test system: IGROV1 ovarian
[3] = test system: K-562 leukemia
[4] = test system: M14 melanoma
[5] = test system: MCF7 breast
[6] = test system: RXF 393 renal
[7] = test system: SK-MEL-5 melanoma
[8] = test system: T-47D breast
[9] = test system: U251 CNS
[10] = test system: UACC-62 melanoma

Compound: N#Cc1c(-c2ccc(Cl)cc2)c(-c2ccc(Cl)cc2)nn(CCOC(=O)CCC(=O)O)c1=O
- TGI [1]: 34.8 µM
- TGI [2]: > 85.3 µM
- TGI [3]: 41 µM
- TGI [4]: 28.5 µM
- TGI [5]: > 62.3 µM
- TGI [6]: 11.9 µM
- TGI [7]: 2.59 µM
- TGI [8]: > 100 µM
- TGI [9]: 40.3 µM
- TGI [10]: 47.7 µM

Compound: CO/N=C(\COc1ccc2c(c1)oc(=O)c1cc(OC)ccc12)c1ccc(F)cc1
- GI50 [1]: 16.4 µM
- TGI [1]: 34.1 µM
- GI50 [2]: 19.3 µM
- TGI [2]: 42.8 µM
- GI50 [3]: 23.9 µM
- TGI [3]: 58.7 µM
- GI50 [4]: 17.8 µM
- TGI [4]: 45.7 µM
- GI50 [5]: 34.7 µM
- TGI [5]: > 100 µM
- GI50 [6]: 35.1 µM
- TGI [6]: > 100 µM
- GI50 [7]: 55.6 µM
- TGI [7]: > 100 µM
- GI50 [8]: 25 µM
- TGI [8]: 90.3 µM
- GI50 [9]: 20.3 µM
- TGI [9]: 40.4 µM
- GI50 [10]: 21.5 µM
- TGI [10]: 73.9 µM

Compound: COC(=O)c1cc2c3ccccc3n3c(=O)c4cc5cc(OC)c(N(S(=O)(=O)c6ccc(C)cc6)S(=O)(=O)c6ccc(C)cc6)cc5nc4c(n1)c23
- GI50 [3]: 47.2 µM
- TGI [3]: > 100 µM
- GI50 [4]: 32.7 µM
- TGI [4]: > 100 µM
- GI50 [5]: > 100 µM
- TGI [5]: > 100 µM
- GI50 [6]: 7.56 µM
- TGI [6]: 26.1 µM
- GI50 [7]: > 100 µM
- TGI [7]: > 100 µM
- GI50 [8]: > 100 µM
- TGI [8]: > 100 µM
- GI50 [9]: 2.62 µM
- TGI [9]: 13.4 µM
- GI50 [10]: 24.9 µM
- TGI [10]: > 100 µM

Compound: COc1ccc(N(C)c2nc(Cl)nc3ccn(C)c23)cc1
- GI50 [1]: < 0.01 µM
- TGI [1]: > 100 µM
- GI50 [2]: < 0.01 µM
- TGI [2]: > 100 µM
- GI50 [3]: < 0.01 µM
- TGI [3]: > 100 µM
- GI50 [4]: < 0.01 µM
- TGI [4]: > 100 µM
- GI50 [5]: < 0.01 µM
- TGI [5]: > 100 µM
- GI50 [6]: < 0.01 µM
- TGI [6]: > 100 µM
- GI50 [7]: < 0.01 µM
- TGI [7]: < 0.01 µM
- GI50 [8]: > 100 µM
- TGI [8]: > 100 µM
- GI50 [9]: < 0.01 µM
- TGI [9]: > 100 µM
- GI50 [10]: < 0.01 µM
- TGI [10]: > 100 µM

Compound: COc1cc2c3c(n(CCCNC(=O)OCC4c5ccccc5-c5ccccc54)c(=O)c2cc1OC)-c1cc2c(cc1C3=O)OCO2
- GI50 [1]: 13.7 µM
- TGI [1]: > 74 µM
- GI50 [2]: > 100 µM
- TGI [2]: > 100 µM
- GI50 [3]: > 79.4 µM
- TGI [3]: > 100 µM
- GI50 [4]: 36.8 µM
- TGI [4]: > 100 µM
- GI50 [5]: 7.62 µM
- TGI [5]: > 100 µM
- GI50 [6]: 20.1 µM
- TGI [6]: > 73.9 µM
- GI50 [7]: 28.2 µM
- TGI [7]: > 100 µM
- GI50 [8]: > 100 µM
- TGI [8]: > 100 µM
- GI50 [9]: 1.67 µM
- TGI [9]: > 87.6 µM
- GI50 [10]: 33.4 µM
- TGI [10]: > 61.2 µM

Compound: COc1ccc(/C(=N\O)c2cc(OC)c(OC)c(OC)c2)c(OC)c1N
- GI50 [1]: 4.26 µM
- TGI [1]: > 100 µM
- GI50 [2]: 6.83 µM
- TGI [2]: > 100 µM
- GI50 [3]: 1.5 µM
- TGI [3]: > 100 µM
- GI50 [4]: 2.98 µM
- TGI [4]: > 100 µM
- GI50 [5]: 2.46 µM
- TGI [5]: > 100 µM
- GI50 [6]: 2.79 µM
- TGI [6]: > 100 µM
- GI50 [7]: 5.32 µM
- TGI [7]: > 100 µM
- GI50 [8]: > 100 µM
- TGI [8]: > 100 µM
- GI50 [9]: 5.17 µM
- TGI [9]: > 100 µM

Compound: Cn1c(=O)c2[nH]c(C3CC(=O)CC(c4nc5c([nH]4)c(=O)n(C)c(=O)n5C)N3)nc2n(C)c1=O (centres undefined)
- TGI [1]: > 100 µM
- TGI [2]: > 100 µM
- TGI [3]: > 100 µM
- TGI [4]: > 100 µM
- TGI [5]: > 100 µM
- TGI [6]: > 100 µM
- TGI [7]: > 100 µM
- TGI [8]: > 100 µM
- TGI [9]: > 100 µM
- TGI [10]: > 100 µM

Compound: N#CCC12CC=CCC1=C(O)C(=O)c1ccc(O)cc12 (centres undefined)
- TGI [1]: > 100 µM
- TGI [2]: > 100 µM
- TGI [3]: > 100 µM
- TGI [4]: > 100 µM
- TGI [5]: > 100 µM
- TGI [6]: > 100 µM
- TGI [7]: > 100 µM
- TGI [8]: > 100 µM
- TGI [9]: > 100 µM
- TGI [10]: > 100 µM

Compound: CC(C)(C)c1cn2cccc(C(=O)N3CCN(CC(=O)Nc4ccc(Cl)cc4C(=O)c4ccccc4Cl)CC3)c2n1
- GI50 [1]: 15.4 µM
- TGI [1]: 32.3 µM
- GI50 [2]: 16.4 µM
- TGI [2]: 38.5 µM
- GI50 [3]: > 100 µM
- TGI [3]: > 100 µM
- GI50 [4]: 15.4 µM
- TGI [4]: 33.2 µM
- GI50 [5]: 3.94 µM
- TGI [5]: 20.8 µM
- GI50 [6]: 1.71 µM
- TGI [6]: 6.34 µM
- GI50 [7]: 3.62 µM
- TGI [7]: 12.7 µM
- GI50 [8]: 5.33 µM
- TGI [8]: > 100 µM
- GI50 [9]: 7.68 µM
- TGI [9]: 25.5 µM
- GI50 [10]: 10.7 µM
- TGI [10]: 26 µM

Compound: NC(N)=N/N=C(/c1ccccc1)c1ccc(Cl)cc1
- GI50 [1]: 30.4 µM
- TGI [1]: > 100 µM
- GI50 [2]: 10.6 µM
- TGI [2]: 82.5 µM
- GI50 [3]: 2.95 µM
- TGI [3]: > 100 µM
- GI50 [4]: 12 µM
- TGI [4]: 78.4 µM
- GI50 [5]: 3.69 µM
- TGI [5]: > 100 µM
- GI50 [6]: 12.3 µM
- TGI [6]: 59.9 µM
- GI50 [7]: 5.97 µM
- TGI [7]: 44.9 µM
- GI50 [8]: > 100 µM
- TGI [8]: > 100 µM
- GI50 [9]: 9.4 µM
- TGI [9]: > 100 µM
- GI50 [10]: 22.4 µM
- TGI [10]: > 100 µM

Compound: c1ccc2c(-c3nc4ccccc4[nH]3)cccc2c1
- GI50 [1]: 5.35 µM
- TGI [1]: 30.3 µM
- GI50 [2]: 5.01 µM
- TGI [2]: 40.3 µM
- GI50 [3]: 0.541 µM
- TGI [3]: 18 µM
- GI50 [4]: 1.99 µM
- TGI [4]: 12 µM
- GI50 [5]: 2.94 µM
- TGI [5]: 37.9 µM
- GI50 [6]: 2.58 µM
- TGI [6]: 12 µM
- GI50 [7]: 4.28 µM
- TGI [7]: 72.4 µM
- GI50 [8]: 6.06 µM
- TGI [8]: > 100 µM
- GI50 [9]: 3.72 µM
- TGI [9]: 26.3 µM
- GI50 [10]: 1.99 µM
- TGI [10]: 27.3 µM

Compound: COc1cc(Nc2ncc3c(C)nc(-c4cccc(Oc5ccccc5)c4)n3n2)cc(OC)c1OC
- GI50 [1]: 10.6 µM
- TGI [1]: > 25 µM
- GI50 [2]: 2.32 µM
- TGI [2]: > 25 µM
- GI50 [3]: 10 µM
- TGI [3]: > 25 µM
- GI50 [4]: 3.54 µM
- TGI [4]: 19 µM
- GI50 [5]: 7.18 µM
- TGI [5]: > 24.1 µM
- GI50 [6]: 2.28 µM
- TGI [6]: > 25 µM
- GI50 [7]: 3.28 µM
- TGI [7]: 6.74 µM
- GI50 [8]: 4.51 µM
- TGI [8]: 17.2 µM
- GI50 [9]: 6.51 µM
- TGI [9]: > 25 µM
- GI50 [10]: 3.3 µM
- TGI [10]: > 13.8 µM

Compound: CNc1cccnc1/C=N/NC(N)=S
- TGI [1]: > 8.19 µM
- TGI [2]: > 10 µM
- TGI [3]: > 10 µM
- TGI [4]: 3.94 µM
- TGI [5]: > 10 µM
- TGI [6]: > 10 µM
- TGI [7]: > 10 µM
- TGI [8]: > 10 µM
- TGI [9]: > 10 µM
- TGI [10]: 3.07 µM

Compound: CS(=O)(=O)Nc1cccc(-c2ccc3c(NC(=O)C4CC4)n[nH]c3c2)c1
- GI50 [1]: 1.16 µM
- TGI [1]: > 21.5 µM
- GI50 [2]: 16.3 µM
- TGI [2]: > 25 µM
- GI50 [3]: 0.776 µM
- TGI [3]: > 25 µM
- GI50 [4]: 2.33 µM
- TGI [4]: > 25 µM
- GI50 [5]: 0.794 µM
- TGI [5]: > 9.93 µM
- GI50 [6]: 1.28 µM
- TGI [6]: > 25 µM
- GI50 [7]: 0.641 µM
- TGI [7]: > 13 µM
- GI50 [8]: 1.2 µM
- TGI [8]: > 25 µM
- GI50 [9]: 1.49 µM
- TGI [9]: > 25 µM
- GI50 [10]: 1.03 µM
- TGI [10]: > 25 µM
